From US12171852B1, “Composition and methods for regulating melanogenesis” (Sytheon Ltd, priority 2023, dated 2024)

Key:
[1] = test system: mushroom tyrosinase; assay: In vitro tyrosinase inhibition assay (L-DOPA conversion); type: biochemical; settings: for Tyrosinase enzyme activity (% of Control): 80 min, L-DOPA 5 mM; for Inhibition of tyrosinase activity (in words): particularly at the higher concentrations
Description: Louis, MO, catalog #K3125) was employed as the positive control/reference substance. […] [Biosci Biotechnol Biochem, 67:1587-1589, 2003]. […] The final concentration used in the assay was 16 U/well (80 U/ml). Tyrosinase substrate L-DOPA (Acros Organics, Fair Lawn, NJ) was used at 5 mM. Reactions were conducted in a 96 well format and were initiated by adding the enzyme to the reaction mix and allowed to react for 80 min. […] The increase of the melanin output was calculated using the formula: ΔM=[A450 nm(t=80 min.)+Tyrosinase]−[A450 nm(t=80 min.)−Tyrosinase] where ΔM is increase of melanin, A is absorbance for a given experimental condition, t is a time point and 450 nm is the wavelength used for the quantification of melanin and “-Tyrosinase” is the background reading of identical experimental conditions without the enzyme.

[2] = biological target: Thioredoxin reductase 1 (Homo sapiens (Human), UniProt Q16881); assay: Thioredoxin reductase 1 (TrxR1) inhibitory activity; type: biochemical; settings: average of two readings; 1 hour incubation at room temperature
Chain of Thioredoxin reductase 1 (Q16881 151-649): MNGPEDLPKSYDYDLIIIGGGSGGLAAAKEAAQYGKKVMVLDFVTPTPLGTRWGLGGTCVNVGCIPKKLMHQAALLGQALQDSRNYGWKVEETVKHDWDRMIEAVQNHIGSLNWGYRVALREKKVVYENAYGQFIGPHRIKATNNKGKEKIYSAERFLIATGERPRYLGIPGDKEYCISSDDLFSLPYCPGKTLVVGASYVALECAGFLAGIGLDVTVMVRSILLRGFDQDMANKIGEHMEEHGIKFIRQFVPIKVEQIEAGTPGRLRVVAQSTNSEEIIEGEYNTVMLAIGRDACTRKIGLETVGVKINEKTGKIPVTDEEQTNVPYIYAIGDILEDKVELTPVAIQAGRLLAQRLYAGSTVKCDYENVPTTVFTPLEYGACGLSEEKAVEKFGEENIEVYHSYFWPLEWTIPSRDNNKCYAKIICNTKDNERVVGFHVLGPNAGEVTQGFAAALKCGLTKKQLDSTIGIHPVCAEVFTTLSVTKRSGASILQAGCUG
Description: Thioredoxin is known to influence melanogenesis substrates [Y Lu et al., Modulating skin colour: role of thioredoxin and glutathione systems in regulating melanogenesis, Bioscience Reports, 2021; 41 BSR20210427]. […] Test materials were prepared by dissolving 0.01 gm of each test material in 1 ml ethanol to make stock solutions. […] The plate was read at 412 nm for 30 minutes to determine the inhibition.

[3] = test system: B16-F1 melanocytes; assay: Melanin synthesis in melanocytes, melanin colorimetric competitive ELISA; type: cell-based; settings: for % Melanin Inhibition: 200 μg/ml, water control = 100; for Melanin-inhibitory activity (in words): colorimetric quantification, ZDBL at 200 μg/ml
[4] = test system: MITF gene expression; assay: MITF gene expression validated by real-time quantitative PCR in EpiDermFT tissues; type: cell-based; settings: versus water control
Description: As validation of the findings above a second analysis of the tissue samples was performed this time using cDNA prepared using High-Capacity RNA-to-cDNA™ Kit (Thermo Fisher Scientific). Expression of the applicable genes was measured by real-time quantitative PCR with the BioRad iCycler iQ Detection System using PCR primers from Realtimeprimers (Elkins Park, PA) and AzuraView GreenFast qPCR Blue Mix LR (Azura Genomics, Raynham, MA). Efficiency ΔΔCt method was used for quantification of results, after the normalization of gene expression to GAPD (a housekeeping gene).

[5] = test system: microphthalmia-associated transcription factor (MITF) gene expression; assay: MITF gene expression, transcriptome analysis of treated EpiDermFT tissues; type: cell-based; settings: EpiDermFT tissue, 3 μl of 100 μg/ml solution, 24 hours
Description: EpiDermFT tissues were obtained from MatTek and equilibrated overnight in the cell culture incubator. […] All stock solutions were prepared at 20 mg/ml in DMSO and further dilutions were made in sterile distilled water. The proposed dosage used was based on cytotoxicity data. Water was used as the negative control. The treated tissue samples were incubated for a period of 24 hours following which RNA was extracted and prepared for transcriptome analysis for assessing the impact, if any, on the gene expression of microphthalmia-associated transcription factor (MITF). Sequencing data were generated by Azenta Life Sciences (HiSeq 2×150 bp). Analyses were performed using raw FastQ files provided by Azenta.

[6] = biological target: NADPH Oxidase 4 (NOX-4) (Homo sapiens (Human), UniProt Q9NPH5); assay: NADPH oxidase (NOX-4) inhibitory activity, NOX4 ELISA kit; type: biochemical
Description: A study was conducted on the direct impact of Zn di-(di-n-butyryl lysinate) (ZDBL), Ca di-(di-n-butyryl lysinate), and Na butyrate on NADPH Oxidase 4 (NOX-4) enzyme. In this study, 0.01 gram of sample was dissolved in 1 ml propanediol to make solution. For the analysis, a 1 to 2 serial dilution of the stock solution of the sample using buffer was made to determine the IC50 values. The analysis was done following NOX4 ELISA kit (My BioSource, Catalog #MBS2505108) protocol.

Q: With `CCCC(=O)NCCCCC(NC(=O)CCC)C(=O)[O-].CCCC(=O)NCCCCC(NC(=O)CCC)C(=O)[O-].[Ca+2]` (centres unmarked) [CDBL, calcium di-(di-n-butyryl lysinate)] as the compound, how does the “Tyrosinase enzyme activity (% of Control)” value ([1]; 10 μg/ml) read?
A: 85 (p = 0.10) % of Control

Q: And the “Tyrosinase enzyme activity (% of Control)” value ([1]; 50 μg/ml)?
A: 89 (p = 0.13) % of Control

Q: What about the “Tyrosinase enzyme activity (% of Control)” value ([1]; 200 μg/ml) of the same compound?
A: 99 (p = 0.86) % of Control

Q: And the “Inhibition of tyrosinase activity (in words)” value [1]?
A: ineffective

Q: What about the “IC50 value, Thioredoxin Reductase 1” value [2] of the same compound?
A: 4.53 µg/mL

Q: And the “% Melanin Inhibition” value ([3]; three days)?
A: 0%

Q: What about the “Melanin-inhibitory activity (in words)” value [3] of the same compound?
A: no significant effect

Q: What about the “Comments (MITF gene expression by PCR)” value [4] of the same compound?
A: No Effect

Q: And the “Fold change/mean FPKM = 2.2 (MITF gene expression)” value [5]?
A: 0.41

Q: What about the “MITF gene expression effect (in words)” value ([5]; listed as Ca di-(di-n-butyryl lysinate) (CDBL)) of the same compound?
A: No effect

Q: And the “MITF gene expression effect (in words)” value ([5]; listed as Ca di-n-butyryl lysinate)?
A: not significantly altered

Q: What about the “IC50 value, NADPH Oxidase (NOX-4)” value [6] of the same compound?
A: 240 µg/mL

Q: Which “Comments (MITF gene expression by PCR)” value [4] does the source give for `NCCCC[C@H](N)C(=O)[O-].NCCCC[C@H](N)C(=O)[O-].[Ca+2]` [Ca lysinate (CLY), Ca lysinate] here?
A: No Effect

Q: And the “Fold change/mean FPKM = 2.2 (MITF gene expression)” value [5]?
A: −0.21

Q: What about the “MITF gene expression effect (in words)” value [5] of the same compound?
A: No effect

Q: What about the “MITF gene expression effect (in words)” value ([5]; listed as Ca lysinate) of the same compound?
A: not significantly altered

Q: How did the “Melanin inhibition, positive control” value ([3]; 5 μg/ml, three days) turn out when `CCCCCCc1ccc(O)cc1O` [Hexylresorcinol] was run?
A: *Hexylresorcinol (5 μg/ml) was used as a positive control: Melanin inhibition was found fo be 17% of control (p = 0.007) confirming the validation of the protocol.

Q: For `O=c1cc(CO)occ1O` [Kojic acid, kojic acid], which “Tyrosinase enzyme activity (% of control), positive control” value ([1]; 200 μM) is on record?
A: *Kojic acid (200 μM) was used as a positive control: Tyrosinase enzyme activity was found to be 39% of control (p = 0.00) confirming the validation of the protocol.

Q: With `NCCCC[C@H](N)C(=O)O` [Lysine (LYS), Lysine] as the compound, how does the “Fold change/mean FPKM = 2.2 (MITF gene expression)” value [5] read?
A: 0.38

Q: What about the “MITF gene expression effect (in words)” value [5] of the same compound?
A: No effect

Q: And the “MITF gene expression effect (in words)” value ([5]; listed as lysine)?
A: not significantly altered

Q: Which “IC50 value, NADPH Oxidase (NOX-4)” value [6] does the source give for `CCCC(=O)[O-].[Na+]` [Na butyrate] here?
A: 170 µg/mL

Q: For `NCCCC[C@H](N)C(=O)[O-].NCCCC[C@H](N)C(=O)[O-].[Zn+2]` [Zn lysinate (ZLY), Zn lysinate], which “Tyrosinase enzyme activity (% of Control)” value ([1]; 10 μg/ml) is on record?
A: 80 (p = 0.02) % of Control

Q: What about the “Tyrosinase enzyme activity (% of Control)” value ([1]; 50 μg/ml) of the same compound?
A: 90 (p = 0.95) % of Control

Q: And the “Tyrosinase enzyme activity (% of Control)” value ([1]; 200 μg/ml)?
A: 90 (p = 0.23) % of Control

Q: What about the “Inhibition of tyrosinase activity (in words)” value [1] of the same compound?
A: ineffective

Q: What about the “% Melanin Inhibition” value ([3]; three days) of the same compound?
A: 0%

Q: What about the “Melanin-inhibitory activity (in words)” value [3] of the same compound?
A: no significant effect

Q: And the “Comments (MITF gene expression by PCR)” value [4]?
A: No Effect

Q: What about the “Fold change/mean FPKM = 2.2 (MITF gene expression)” value [5] of the same compound?
A: 0.17

Q: What about the “MITF gene expression effect (in words)” value [5] of the same compound?
A: No effect

Q: And the “MITF gene expression effect (in words)” value ([5]; listed as Zn lysinate)?
A: not significantly altered
